Assay results as given in USRE48461E1, “Modulation of androgen receptor expression” (Ionis Pharmaceuticals, Inc., priority 2012, dated 2021).
Oligonucleotides are written 5' to 3', each unit as a sugar letter and its base; * is a phosphorothioate linkage, no mark a phosphodiester; rarer units and linkages stand in square brackets, end groups in braces. Plain capitals give the bases only. e = 2'-O-(2-methoxyethyl) (MOE); k = constrained ethyl (cEt); [5mC] = 5-methylcytosine; d = 2'-deoxy (DNA)

How the values were obtained:
[1] = test system: AR mRNA; assay: Antisense inhibition of human AR in HuVEC cells, single concentration (electroporation, qRT-PCR RTS3559); assay type: cell-based
Protocol: Antisense oligonucleotides were designed targeting an AR nucleic acid and were tested for their effects on AR mRNA in vitro. The antisense oligonucleotides were tested in a series of experiments that had similar culture conditions. […] Human primer probe set RTS3559 (forward sequence [NT], designated herein as SEQ ID NO: 9; reverse sequence [NT], designated herein as SEQ ID NO: 10; probe sequence [NT], designated herein as SEQ ID NO: 11) was used to measure mRNA levels. AR mRNA levels were adjusted according to total RNA content, as measured by RIBOGREEN®. […] A total of 155 oligonucleotides were tested. Additional antisense oligonucleotides were designed targeting an AR nucleic acid and were tested for their effects on AR mRNA in vitro. […] Human primer probe set RTS3559 was used to measure mRNA levels. AR mRNA levels were adjusted according to total RNA content, as measured by RIBOGREEN®. […] A total of 82 oligonucleotides were tested. Additional antisense oligonucleotides were designed targeting an AR nucleic acid and were tested for their effects on AR mRNA in vitro. […] Human primer probe set RTS3559 was used to measure mRNA levels. AR mRNA levels were adjusted according to total RNA content, as measured by RIBOGREEN®. […] A total of 40 oligonucleotides were tested. Additional antisense oligonucleotides were designed targeting an AR nucleic acid and were tested for their effects on AR mRNA in vitro. […] Human primer probe set RTS3559 was used to measure mRNA levels. AR mRNA levels were adjusted according to total RNA content, as measured by RIBOGREEN®. […] A total of 75 oligonucleotides were tested. Additional antisense oligonucleotides were designed targeting an AR nucleic acid and were tested for their effects on AR mRNA in vitro. […] Human primer probe set RTS3559 was used to measure mRNA levels. AR mRNA levels were adjusted according to total RNA content, as measured by RIBOGREEN®. […] A total of 616 oligonucleotides were tested. Additional antisense oligonucleotides were designed targeting an AR nucleic acid and were tested for their effects on AR mRNA in vitro. […] Human primer probe set RTS3559 was used to measure mRNA levels. AR mRNA levels were adjusted according to total RNA content, as measured by RIBOGREEN®. […] A total of 385 oligonucleotides were tested.

[2] = test system: AR mRNA; assay: Dose-dependent antisense inhibition of human AR in HuVEC cells (electroporation, qRT-PCR RTS3559, IC50); assay type: cell-based; details: HuVEC
Protocol: (§1) After a treatment period of approximately 16 hours, RNA was isolated from the cells and AR mRNA levels were measured by quantitative real-time PCR. Human AR primer probe set RTS3559 was used to measure mRNA levels. AR mRNA levels were adjusted according to total RNA content, as measured by RIBOGREEN®. […] The antisense oligonucleotides were tested in a series of experiments that had similar culture conditions.
as §1, §1, §1, §1
(§2) After a treatment period of approximately 16 hours, RNA was isolated from the cells and AR mRNA levels were measured by quantitative real-time PCR. Human AR primer probe set RTS3559 was used to measure mRNA levels. AR mRNA levels were adjusted according to total RNA content, as measured by RIBOGREEN®.
as §2

[3] = Table 35, electroporation, approximately 16 hours
[4] = 500 nM ASO, electroporation, ~24 h, Table 1
[5] = Table 32, electroporation, approximately 16 hours

Substance: 584183 (kA*k[5mC]*kA*dG*dG*d[5mC]*dT*d[5mC]*dT*dG*dA*d[5mC]*dT*kA*kG*kG; antisense) [compound 584183]
- % inhibition ([1]; Table 24, 1,000 nM oligonucleotide, electroporation, approximately 24 hours, relative to untreated control): 76%
- percent inhibition of AR, 46.9 nM [2, 3]: 3%
- percent inhibition of AR, 187.5 nM [2, 3]: 41%
- percent inhibition of AR, 750.0 nM [2, 3]: 64%
- percent inhibition of AR, 3000.0 nM [2, 3]: 87%
- IC50 [2, 3]: 310 nM

Substance: 549366 (k[5mC]*kT*kT*dG*d[5mC]*d[5mC]*dT*dG*d[5mC]*dG*d[5mC]*dT*dG*kT*k[5mC]*kG; antisense) [compound 549366]
- % inhibition [1, 4]: 84%
- percent inhibition of AR ([2]; 55.6 nM, ~16 h, Table 4): 44%
- percent inhibition of AR ([2]; 166.7 nM, ~16 h, Table 4): 58%
- percent inhibition of AR ([2]; 500.0 nM, ~16 h, Table 4): 72%
- percent inhibition of AR ([2]; 1500.0 nM, ~16 h, Table 4): 91%
- IC50 ([2]; ~16 h, Table 4): 129 nM

Substance: 560100 (antisense kT*kG*kG*dT*dT*dG*dA*dT*dT*dT*dA*dA*dT*kG*kG*kT) [compound 560100]
- % inhibition ([1]; 500 nM ASO, ~24 h, Table 5): 91%
- percent inhibition of AR ([2]; 31.25 nM, ~16 h, Table 6): 16%
- percent inhibition of AR ([2]; 62.5 nM, ~16 h, Table 6): 24%
- percent inhibition of AR ([2]; 125.0 nM, ~16 h, Table 6): 53%
- percent inhibition of AR ([2]; 500.0 nM, ~16 h, Table 6): 81%
- percent inhibition of AR ([2]; 1000.0 nM, ~16 h, Table 6): 93%
- IC50 ([2]; ~16 h, Table 6): 100 nM

Substance: 569220 (antisense eA*kT*kG*kG*dT*dT*dG*dA*dT*dT*dT*dA*kA*kT*kG*eG) [compound 569220]
- % inhibition ([1]; 1,000 nM ASO, ~24 h, Table 13): 58%
- percent inhibition of AR ([2]; 31.25 nM, ~16 h, Table 14): 11%
- percent inhibition of AR ([2]; 62.5 nM, ~16 h, Table 14): 29%
- percent inhibition of AR ([2]; 125.0 nM, ~16 h, Table 14): 34%
- percent inhibition of AR ([2]; 500.0 nM, ~16 h, Table 14): 59%
- percent inhibition of AR ([2]; 1000.0 nM, ~16 h, Table 14): 78%
- IC50 ([2]; ~16 h, Table 14): 275 nM

Substance: 560137 (antisense TTGATTTAATGGTTGC; all C 5-methyl, all phosphorothioate, sugars by position not given here; further chemistry not fully specified) [compound 560137]
- % inhibition ([1]; 250 nM ASO, ~24 h, Table 7): 66%
- % inhibition ([1]; 500 nM ASO, ~24 h, Table 5): 95%
- percent inhibition of AR ([2]; 31.25 nM, ~16 h, Table 6): 27%
- percent inhibition of AR ([2]; 31.25 nM, ~16 h, Table 8): 35%
- percent inhibition of AR ([2]; 62.5 nM, ~16 h, Table 6): 49%
- percent inhibition of AR ([2]; 62.5 nM, ~16 h, Table 8): 39%
- percent inhibition of AR ([2]; 125.0 nM, ~16 h, Table 6): 61%
- percent inhibition of AR ([2]; 125.0 nM, ~16 h, Table 8): 64%
- percent inhibition of AR ([2]; 500.0 nM, ~16 h, Table 6): 91%
- percent inhibition of AR ([2]; 500.0 nM, ~16 h, Table 8): 89%
- percent inhibition of AR ([2]; 1000.0 nM, ~16 h, Table 6): 96%
- percent inhibition of AR ([2]; 1000.0 nM, ~16 h, Table 8): 94%
- IC50 ([2]; ~16 h, Table 6): 100 nM
- IC50 ([2]; ~16 h, Table 8): 80 nM

Substance: 583881 (k[5mC]*k[5mC]*kT*dT*dT*dG*dG*dT*dG*dT*dA*dA*d[5mC]*k[5mC]*kT*k[5mC]; antisense) [compound 583881]
- % inhibition ([1]; Table 20, 500 nM oligonucleotide, electroporation, approximately 24 hours, relative to untreated control): 47%
- percent inhibition of AR, 46.9 nM [2, 5]: 28%
- percent inhibition of AR, 187.5 nM [2, 5]: 50%
- percent inhibition of AR, 750.0 nM [2, 5]: 85%
- percent inhibition of AR, 3000.0 nM [2, 5]: 91%
- IC50 [2, 5]: 150 nM

Substance: 585271 (eA*kA*kG*dT*dT*dG*dT*dA*dG*dT*dA*dG*dT*k[5mC]*kG*e[5mC]) [compound 585271]
- % inhibition ([1]; 1,000 nM ASO, ~24 h, Table 13): 57%

Substance: 585269 (eA*kA*eG*kT*dT*dG*dT*dA*dG*dT*dA*dG*eT*k[5mC]*eG*k[5mC]) [compound 585269]
- % inhibition ([1]; 1,000 nM ASO, ~24 h, Table 13): 73%

Substance: 585233 (kA*kG*kT*dT*dG*dT*dA*dG*dT*dA*dG*kT*e[5mC]*eG*e[5mC]*eG) [compound 585233]
- % inhibition ([1]; 1,000 nM ASO, ~24 h, Table 13): 69%

Substance: 579670 (antisense eT*kG*kA*eT*kT*kT*dA*dA*dT*dG*dG*dT*dT*kG*k[5mC]*kA) [compound 579670]
- percent inhibition of AR ([2]; 62.5 nM, ~16 h, Table 11): 27%
- percent inhibition of AR ([2]; 125.0 nM, ~16 h, Table 11): 28%
- percent inhibition of AR ([2]; 500.0 nM, ~16 h, Table 11): 75%
- percent inhibition of AR ([2]; 1000.0 nM, ~16 h, Table 11): 70%
- IC50 ([2]; ~16 h, Table 11): 236 nM

Substance: 585265 (eA*eA*kG*kT*dT*dG*dT*dA*dG*dT*dA*dG*kT*k[5mC]*eG*e[5mC]) [compound 585265]
- % inhibition ([1]; 1,000 nM ASO, ~24 h, Table 13): 69%

Substance: 585259 (eA*kA*kG*kT*dT*dG*dT*dA*dG*dT*dA*dG*dT*k[5mC]*kG*k[5mC]) [compound 585259]
- % inhibition ([1]; 1,000 nM ASO, ~24 h, Table 13): 71%

Substance: 579672 (antisense eG*kT*kT*eG*kA*kT*dT*dT*dA*dA*dT*dG*dG*kT*kT*kG) [compound 579672]
- percent inhibition of AR ([2]; 62.5 nM, ~16 h, Table 11): 9%
- percent inhibition of AR ([2]; 125.0 nM, ~16 h, Table 11): 30%
- percent inhibition of AR ([2]; 500.0 nM, ~16 h, Table 11): 72%
- percent inhibition of AR ([2]; 1000.0 nM, ~16 h, Table 11): 86%
- IC50 ([2]; ~16 h, Table 11): 258 nM

Substance: 569214 (antisense kG*kG*kT*dT*dG*dA*dT*dT*dT*dA*dA*dT*kG*kG*kT*eT) [compound 569214]
- percent inhibition of AR ([2]; 62.5 nM, ~16 h, Table 12): 20%
- percent inhibition of AR ([2]; 125.0 nM, ~16 h, Table 12): 26%
- percent inhibition of AR ([2]; 500.0 nM, ~16 h, Table 12): 62%
- percent inhibition of AR ([2]; 1000.0 nM, ~16 h, Table 12): 76%
- IC50 ([2]; ~16 h, Table 12): 265 nM

Substance: 585263 (kA*kA*kG*dT*dT*dG*dT*dA*dG*dT*dA*kG*kT*k[5mC]*eG*e[5mC]) [compound 585263]
- % inhibition ([1]; 1,000 nM ASO, ~24 h, Table 13): 69%

Substance: 585262 (kA*kA*kG*dT*dT*dG*dT*dA*dG*dT*dA*dG*kT*k[5mC]*kG*e[5mC]) [compound 585262]
- % inhibition ([1]; 1,000 nM ASO, ~24 h, Table 13): 77%

Substance: 569217 (antisense eG*kT*kT*kG*dA*dT*dT*dT*dA*dA*dT*dG*kG*kT*kT*eG) [compound 569217]
- percent inhibition of AR ([2]; 62.5 nM, ~16 h, Table 12): 34%
- percent inhibition of AR ([2]; 125.0 nM, ~16 h, Table 12): 39%
- percent inhibition of AR ([2]; 500.0 nM, ~16 h, Table 12): 64%
- percent inhibition of AR ([2]; 1000.0 nM, ~16 h, Table 12): 64%
- IC50 ([2]; ~16 h, Table 12): 247 nM

Substance: 549386 (kG*k[5mC]*kT*dT*d[5mC]*dA*dT*d[5mC]*dT*d[5mC]*d[5mC]*dA*d[5mC]*kA*kG*kA; antisense) [compound 549386]
- % inhibition [1, 4]: 77%

Substance: 585274 (kA*kA*kG*dT*dT*dG*dT*dA*dG*dT*dA*dG*dT*k[5mC]*kG*e[5mC]) [compound 585274]
- % inhibition ([1]; 1,000 nM ASO, ~24 h, Table 13): 65%

Substance: 579669 (antisense eG*kG*kT*eT*eG*kA*kT*dT*dT*dA*dA*dT*dG*dG*kT*kT) [compound 579669]
- percent inhibition of AR ([2]; 62.5 nM, ~16 h, Table 11): 24%
- percent inhibition of AR ([2]; 125.0 nM, ~16 h, Table 11): 39%
- percent inhibition of AR ([2]; 500.0 nM, ~16 h, Table 11): 74%
- percent inhibition of AR ([2]; 1000.0 nM, ~16 h, Table 11): 91%
- IC50 ([2]; ~16 h, Table 11): 207 nM

Substance: 549345 (kT*k[5mC]*kT*dG*dG*dA*dA*d[5mC]*dA*dG*dA*dT*dT*k[5mC]*kT*kG; antisense) [compound 549345]
- % inhibition [1, 4]: 82%

Substance: 585268 (kA*eA*kG*eT*dT*dG*dT*dA*dG*dT*dA*dG*eT*k[5mC]*eG*k[5mC]) [compound 585268]
- % inhibition ([1]; 1,000 nM ASO, ~24 h, Table 13): 72%

Substance: 585264 (kA*kA*kG*dT*dT*dG*dT*dA*dG*dT*kA*kG*kT*e[5mC]*eG*e[5mC]) [compound 585264]
- % inhibition ([1]; 1,000 nM ASO, ~24 h, Table 13): 62%
